Test in all cases: inhibition of tumour cell growth, NCI panel, 48 h
For test [1], the system named is A498 renal.
Test [2] deals with CCRF-CEM leukemia.
The subject of test [3] is COLO 205 colon.
In test [4] the test system is HL-60(TB) leukemia.
The subject of test [5] is HT29 colon.
Test [6] concerns KM12 colon.
The subject of test [7] is MOLT-4 leukemia.
Test [8] relates to NCI-H226 lung.
Test [9] deals with OVCAR-4 ovarian.
For test [10], the system named is SN12C renal.

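Where inhibition never reached the appropriate level, the endpoint shown equals the highest concentration tested. Otherwise, values were interpolated linearly from a five-concentration, 48-hour dose response in 96-well plates. Here, GI50 denotes the concentration required for 50% inhibition of growth. Definition used: TGI = concentration required for complete inhibition of growth.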

For the molecule `CSc1ccc(NC(=O)Nc2cc(C)ccn2)cc1`, the TGI in test [1], in [2], in test [3], in test [4], in test [5] and in test [6] was greater than 100 µM each time. In addition, the TGI in test [7], in [8], in test [9] and in test [10] was greater than 100 µM each time.
Turning to `COc1cc2c3c(n(CCN4CCOCC4)c(=O)c2cc1OC)-c1ccccc1C3=O`, the GI50 was 85.7 µM in [1]; 19.7 µM in [2]; greater than 100 µM in [3]; 35.7 µM in [4]; greater than 100 µM in test [5]; greater than 100 µM in test [6]. Further, the GI50 in [7] was 55.5 µM; in test [8], greater than 100 µM; in test [9], greater than 100 µM; in test [10], greater than 100 µM. Besides, the TGI in test [1], in test [2], in test [3], in test [4], in test [5] and in test [6] was greater than 100 µM in each case. The TGI in [7], in [8], in test [9] and in [10] was greater than 100 µM throughout.
`CC(C)(O)CCc1cccc(C(=O)c2cnn(-c3ccc(F)cc3)c2N)c1`: the GI50 was greater than 18.4 µM in test [1]; greater than 25 µM in test [2]; greater than 25 µM in test [3]; greater than 25 µM in test [4]; greater than 25 µM in [5]; greater than 25 µM in [6]. Also, the GI50 is greater than 25 µM in test [7], greater than 19.7 µM in test [8], greater than 23.3 µM in test [9] and greater than 25 µM in [10]. Further, the TGI in test [1], in test [2], in test [3], in test [4], in test [5] and in [6] was greater than 25 µM in each case. For the same molecule, the TGI in test [7], in [8], in [9] and in test [10] was greater than 25 µM in each case.
On to `CSc1nnc(-c2cc3c([nH]c4ccccc43)c(-c3cccc(O)c3)n2)n1-c1ccc(C)cc1`, for which the GI50 in [1] was 1.73 µM; in [2], 9.4 µM; in test [3] it was 4.49 µM; in test [4], 3.02 µM; in test [5] it was 3.39 µM; in [6] it was 3.86 µM. The GI50 was 3.65 µM in test [7], 3.32 µM in test [8], 2.73 µM in test [9] and 5.83 µM in [10]. Besides, the TGI in test [1] was 7.14 µM; in test [2], greater than 100 µM; in [3], 43.6 µM; in test [4], greater than 100 µM; in test [5] it was greater than 100 µM; in [6], greater than 100 µM. Also, the TGI was greater than 100 µM in test [7], 18 µM in test [8], 8.61 µM in test [9] and 81.6 µM in test [10].
As to `Cc1c(Cl)cccc1NC(=O)c1sc2nc3c(cc2c1N)C(=O)CCC3`, the GI50 in test [1] was 0.023 µM; in test [2], 0.108 µM; in test [3] it was 0.05 µM; in [4], 0.081 µM; in test [5], 0.0445 µM; in [6] it was 0.0658 µM. Moreover, the GI50 was 0.466 µM in test [7], 0.102 µM in test [8], 0.569 µM in [9] and 0.124 µM in test [10]. The TGI in test [1] is 0.203 µM; in test [2], greater than 100 µM; in test [3], 0.344 µM; in test [4], 0.769 µM; in test [5] it was greater than 33.4 µM; in test [6], greater than 100 µM. Besides, the TGI in test [7] was greater than 100 µM; in [8], greater than 37.1 µM; in [9], greater than 84.7 µM; in test [10], greater than 100 µM.
Regarding `COc1cccc(N2CCN(c3ncnc4cc[nH]c34)CC2)c1`, the GI50 in test [1] was 1.65 µM; in test [2] it was 9.61 µM; in test [3] it was 11.2 µM; in test [4], 5.84 µM; in [5], 20 µM; in [6], 9.8 µM. For the same molecule, the GI50 is 2.46 µM in test [7], 1.59 µM in test [8], 1.73 µM in [9] and 32.6 µM in test [10]. The TGI in test [1] was 79.3 µM; in test [2], greater than 100 µM; in [3], 45.5 µM; in [4], 74 µM; in [5] it was greater than 100 µM; in test [6], 85 µM. Besides, the TGI in [7] is 21.4 µM; in [8], 75.7 µM; in [9] it was greater than 100 µM; in test [10] it was greater than 100 µM.
Consider `COc1ccc(/C=C\c2cc(OC)c(OC)c(OC)c2)cc1OC(=O)CC(N)C(=O)O` (centres undefined), for which the TGI is 0.00888 µM in [1]; 21 µM in [3]; 39.6 µM in test [5]; 0.107 µM in test [8]; greater than 100 µM in [9]; greater than 100 µM in [10]. Further, the GI50 in [2] is 0.000495 µM; in test [3], 4.11 µM; in test [4], 0.000165 µM; in [5] it was 4.65 µM; in test [6] it was 0.000979 µM; in [7], 0.00172 µM. The GI50 in test [9] was 9.51 µM; in test [10] it was 0.00412 µM.
Take `C[C@]12Cc3conc3C(O)=C1CC[C@@H]1C2CC[C@@]2(C)C1CC[C@]2(C)O` (some centres undefined): the TGI in test [1] is 51.9 µM; in [2], 46.5 µM; in [3], 52.1 µM; in test [4], 10.7 µM; in test [5] it was 89.4 µM; in test [6] it was 64.9 µM. Further, the TGI in test [7] was 42.3 µM; in test [8], 47.3 µM; in test [9], 44.4 µM; in [10], greater than 100 µM.

Source of the values: PubChem BioAssay (NCI).
